Literature values in US20150190345A1, “Controlled Release Formulations of Lorazepam” (priority 2014, published 2015).

Assays:
[1] = according to the package insert

## O=C1Nc2ccc(Cl)cc2C(c2ccccc2Cl)=NC1O (centres unmarked) [Lorazepam, 7-chloro-5-(2-chlorophenyl)-1,3-dihydro-3-hydroxy-2H-1,4-benzodiazepin-2-one]
[1]
  half-life in human plasma: about 12 hours
other
  solubility in water: almost insoluble in water
